{"source": "paper PMC10721329", "about": "“Quisinostat is a brain-penetrant radiosensitizer in glioblastoma” (JCI Insight, 2023)", "assay_in_all_cases": "CellTiter-Glo dose-response cell viability assay", "format_in_all_cases": "cell-based, human", "key": {"[1]": {"test_system": "GB82 patient-derived GSC line", "protocol": "(§1) QST (JNJ-26481585) is a second-generation hydroxamic acid harboring remarkable selectivity toward class I HDACs, with a biochemical IC50 of 0.1 nM for HDAC1 ([13]). […] To determine the cytotoxic effects of QST, we performed a dose-titration cell viability assay in 7 patient-derived GSC lines (BT145, GB187, GB239, GB282, GB71, GB82, and GB126) and 1 long-term serum-grown human GBM cell line (U87). Because GBMs display a high degree of intratumoral heterogeneity, we used GSCs derived from both primary and recurrent GBMs that harbored distinct genetic mutations or aberrations, growth rates, MGMT promoter methylation status, and gene expression profiles (Supplemental Figure 1; supplemental material available online with this article; https://doi.org/10.1172/jci.insight.167081DS1). Cell lines were treated with various concentrations of QST (10–1000 nM), and cell viability was measured 3–5 days later (Figure 1, A and B). […] Treatment with QST at the IC50 induced significant inhibition of proliferation (Ki67) and an increase in programmed cell death (cleaved caspase 3) in 2 different GSC lines (Figure 1, C and D). Additional analyses confirmed that QST induces apoptosis after short-term treatment through increased staining of the apoptotic marker annexin V (Figure 2A) and cell cycle arrest (in G2- or S-phase; Figure 2B and Supplemental Figure 1B).\n(§2) GSCs were seeded in laminin-coated tissue culture–treated 96-well plates (clear bottom, white plate; Corning) at a density of 1000–5000 cells per well (cell line dependent) in GSC media. U87-MG were seeded using their normal growth conditions without laminin (10% bovine calf serum in DMEM). All cells were incubated at 37°C and allowed to adhere overnight. The next day, cells were treated with incremental concentrations of QST (Selleckchem; 0, 10, 25, 50, 100, 250, 500, and 1000 nM) diluted in media. Cells treated without QST were treated with DMSO diluted in media. Following treatment with QST, cells were grown for 3 to 5 days (cell line dependent), and cell viability was measured and quantified. All cell viability measurements were performed using the CellTiter-Glo luminescent cell viability assay (Promega) following the manufacturer’s instructions. For the sulforhodamine B colorimetric assay for cytotoxicity, the protocol was performed as described elsewhere ([33]). All cell viability results represent the mean of at least 3 biological replicates, each containing 3 technical replicates."}, "[2]": {"test_system": "GB71 patient-derived GSC line", "protocol": "as §1, §2"}, "[3]": {"test_system": "GB187 patient-derived GSC line", "details": "GB187x", "protocol": "as §1, §2"}, "[4]": {"details": "Homo sapiens, QST 10 nM (log[nM] 1), read-out: Cell viability (fraction of DMSO control)"}, "[5]": {"details": "Homo sapiens, QST 25 nM (log[nM] 1.39794), read-out: Cell viability (fraction of DMSO control)"}, "[6]": {"details": "Homo sapiens, QST 50 nM (log[nM] 1.69897), read-out: Cell viability (fraction of DMSO control)"}, "[7]": {"details": "Homo sapiens, QST 100 nM (log[nM] 2), read-out: Cell viability (fraction of DMSO control)"}, "[8]": {"details": "Homo sapiens, QST 250 nM (log[nM] 2.39794), read-out: Cell viability (fraction of DMSO control)"}, "[9]": {"details": "Homo sapiens, QST 500 nM (log[nM] 2.69897), read-out: Cell viability (fraction of DMSO control)"}, "[10]": {"details": "Homo sapiens, QST 1000 nM (log[nM] 3), read-out: Cell viability (fraction of DMSO control)"}}, "note": "Values joined by “and” are separate entries in the source; they are usually repeats but may differ in a detail not shown here. Equal values may be shown once.", "data": [{"smiles": "Cn1cc(CNCC2CCN(c3ncc(C(=O)NO)cn3)CC2)c2ccccc21", "note": "[QST, quisinostat]", "values": [{"measurement": "IC50", "setting": "[1]; Homo sapiens, 3-5 days", "value": 65, "unit": "nM"}, {"measurement": "viability at 0.01 µM", "setting": "[1]; [4]", "value": 78.8, "unit": "%"}, {"measurement": "viability at 0.025 µM", "setting": "[1]; [5]", "value": 77.1, "unit": "%"}, {"measurement": "viability at 0.05 µM", "setting": "[1]; [6]", "value": 66.9, "unit": "%"}, {"measurement": "viability at 0.1 µM", "setting": "[1]; [7]", "value": 51.1, "unit": "%"}, {"measurement": "viability at 0.25 µM", "setting": "[1]; [8]", "value": 37.7, "unit": "%"}, {"measurement": "viability at 0.5 µM", "setting": "[1]; [9]", "value": 30.8, "unit": "%"}, {"measurement": "viability at 1 µM", "setting": "[1]; [10]", "value": 26.5, "unit": "%"}, {"measurement": "Cell viability (fraction of DMSO control)", "setting": "[1]; QST 10 nM (log[nM] 1)", "value": "0.7668 and 0.8052"}, {"measurement": "Cell viability (fraction of DMSO control)", "setting": "[1]; QST 25 nM (log[nM] 1.39794)", "value": "0.6655 and 0.6833"}, {"measurement": "Cell viability (fraction of DMSO control)", "setting": "[1]; QST 50 nM (log[nM] 1.69897)", "value": "0.651 and 0.6783"}, {"measurement": "Cell viability (fraction of DMSO control)", "setting": "[1]; QST 100 nM (log[nM] 2)", "value": "0.4804 and 0.526"}, {"measurement": "Cell viability (fraction of DMSO control)", "setting": "[1]; QST 250 nM (log[nM] 2.39794)", "value": "0.3237 and 0.3695"}, {"measurement": "Cell viability (fraction of DMSO control)", "setting": "[1]; QST 500 nM (log[nM] 2.69897)", "value": "0.2733 and 0.2932"}, {"measurement": "Cell viability (fraction of DMSO control)", "setting": "[1]; QST 1000 nM (log[nM] 3)", "value": "0.2807 and 0.2449"}, {"measurement": "IC50", "setting": "[2]; Homo sapiens, 3-5 days", "value": 29, "unit": "nM"}, {"measurement": "viability at 0.01 µM", "setting": "[2]; [4]", "value": 76.3, "unit": "%"}, {"measurement": "viability at 0.025 µM", "setting": "[2]; [5]", "value": 68.5, "unit": "%"}, {"measurement": "viability at 0.05 µM", "setting": "[2]; [6]", "value": 59.2, "unit": "%"}, {"measurement": "viability at 0.1 µM", "setting": "[2]; [7]", "value": 46.1, "unit": "%"}, {"measurement": "viability at 0.25 µM", "setting": "[2]; [8]", "value": 31.5, "unit": "%"}, {"measurement": "viability at 0.5 µM", "setting": "[2]; [9]", "value": 24.4, "unit": "%"}, {"measurement": "viability at 1 µM", "setting": "[2]; [10]", "value": 21.1, "unit": "%"}, {"measurement": "Cell viability (fraction of DMSO control)", "setting": "[2]; QST 10 nM (log[nM] 1)", "value": "0.687 and 0.6848"}, {"measurement": "Cell viability (fraction of DMSO control)", "setting": "[2]; QST 25 nM (log[nM] 1.39794)", "value": "0.6366 and 0.6132"}, {"measurement": "Cell viability (fraction of DMSO control)", "setting": "[2]; QST 50 nM (log[nM] 1.69897)", "value": "0.5332 and 0.5323"}, {"measurement": "Cell viability (fraction of DMSO control)", "setting": "[2]; QST 100 nM (log[nM] 2)", "value": "0.436 and 0.4247"}, {"measurement": "Cell viability (fraction of DMSO control)", "setting": "[2]; QST 250 nM (log[nM] 2.39794)", "value": "0.3077 and 0.3032"}, {"measurement": "Cell viability (fraction of DMSO control)", "setting": "[2]; QST 500 nM (log[nM] 2.69897)", "value": "0.2399 and 0.2412"}, {"measurement": "Cell viability (fraction of DMSO control)", "setting": "[2]; QST 1000 nM (log[nM] 3)", "value": "0.2213 and 0.2152"}, {"measurement": "Cell viability (fraction of DMSO control)", "setting": "[3]; QST 10 nM (log[nM] 1)", "value": "0.9255 and 0.9282"}, {"measurement": "Cell viability (fraction of DMSO control)", "setting": "[3]; QST 25 nM (log[nM] 1.39794)", "value": "0.8647 and 0.8308"}, {"measurement": "Cell viability (fraction of DMSO control)", "setting": "[3]; QST 50 nM (log[nM] 1.69897)", "value": "0.7684 and 0.7163"}, {"measurement": "Cell viability (fraction of DMSO control)", "setting": "[3]; QST 100 nM (log[nM] 2)", "value": "0.6258 and 0.5995"}, {"measurement": "Cell viability (fraction of DMSO control)", "setting": "[3]; QST 250 nM (log[nM] 2.39794)", "value": "0.5316 and 0.4983"}, {"measurement": "Cell viability (fraction of DMSO control)", "setting": "[3]; QST 500 nM (log[nM] 2.69897)", "value": "0.4749 and 0.464"}, {"measurement": "Cell viability (fraction of DMSO control)", "setting": "[3]; QST 1000 nM (log[nM] 3)", "value": "0.4026 and 0.4385"}, {"measurement": "viability at 0.01 µM", "setting": "[3]; [4]", "value": 88.5, "unit": "%"}, {"measurement": "viability at 0.025 µM", "setting": "[3]; [5]", "value": 79.9, "unit": "%"}, {"measurement": "viability at 0.05 µM", "setting": "[3]; [6]", "value": 70.8, "unit": "%"}, {"measurement": "viability at 0.1 µM", "setting": "[3]; [7]", "value": 59, "unit": "%"}, {"measurement": "viability at 0.25 µM", "setting": "[3]; [8]", "value": 53.2, "unit": "%"}]}]}
